The source of these data is patent US12509444B2, “Compounds and methods for CD73 modulation and indications therefor” (Plexxikon Inc., priority 2019, dated 2025).

The target in experiment [1] is T1, human CD73 (Homo sapiens, UniProt P21589).
T1 construct: expressed in transfected cells
T1 sequence (P21589 27-549): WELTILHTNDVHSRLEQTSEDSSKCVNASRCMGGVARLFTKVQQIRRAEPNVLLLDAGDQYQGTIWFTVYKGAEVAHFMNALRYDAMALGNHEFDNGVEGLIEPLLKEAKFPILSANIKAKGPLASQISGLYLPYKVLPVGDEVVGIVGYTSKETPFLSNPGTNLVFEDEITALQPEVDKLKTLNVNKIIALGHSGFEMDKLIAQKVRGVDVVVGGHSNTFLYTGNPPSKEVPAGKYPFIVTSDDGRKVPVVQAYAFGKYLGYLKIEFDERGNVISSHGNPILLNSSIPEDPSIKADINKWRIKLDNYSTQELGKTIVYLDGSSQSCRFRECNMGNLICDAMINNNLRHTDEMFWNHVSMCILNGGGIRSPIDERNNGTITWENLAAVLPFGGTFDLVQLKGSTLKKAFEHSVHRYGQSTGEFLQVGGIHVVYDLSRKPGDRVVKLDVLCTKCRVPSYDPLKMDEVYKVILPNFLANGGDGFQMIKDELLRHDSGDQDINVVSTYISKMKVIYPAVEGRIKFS
Kind of experiment: Inhibitor activity against CD73 in cell based assay (CD73 expressing CHO-K1 cells). Particulars: CHO-K1 cells expressing human CD73, 150 μM AMP, 4 hours of incubation; read-out: CHO-K1 CELL VARIANT: CD73 IC50. In outline:
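Stably transfected CHO-K1 cells expressing human CD73 (1×10^4/well) incubated 4 h with compound (8-point 1:3 titration, top 10 μM final, 0.2% DMSO) and 150 μM AMP. Residual AMP in supernatant measured by CellTiter-Glo luminescence with 1 μM ATP after 30 min at room temperature; IC50 by nonlinear regression of percent inhibition vs high/low controls.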

Experiment [2] deals with T2, Human CD73 (amino acid residues 27-549) (Homo sapiens, UniProt P21589).
T2 construct: Human CD73 (amino acid residues 27-549); His tag (N); made in house; host or cells: E. coli
T2 sequence (P21589 27-549): T1 sequence (P21589 27-549)
As to the kind of experiment: CD73 enzymatic assay (luciferase-based indirect assay, CellTiter-Glo). It is filed as biochemical. Particulars: 0.4 nM CD73, 150 μM AMP, 1 hour at room temperature. In outline:
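His-tagged human CD73 (27-549) from E. coli, 0.4 nM, with 150 μM AMP in 50 mM HEPES pH 7.4, 0.01% Tween 20; 1 h at room temperature. AMP remaining read by CellTiter-Glo 2.0 luminescence with 1 μM final ATP after 30 min. IC50 from nonlinear regression of % inhibition.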

In the case of `O=C(NC1(CO)CCCC1)O[C@@H]1CCN(c2cn[nH]c(=O)c2Cl)C1` [P-0429, (R)-1-(5-chloro-6-oxo-1,6-dihydropyridazin-4-yl)pyrrolidin-3-yl (1-(hydroxymethyl)cyclopentyl) carbamate], the IC50 in experiment [1] and in experiment [2] was 0.001 to 10 µM throughout.
Regarding `O=C(Cn1ncc(N2CC[C@@H](OC(=O)NC3CCC(F)(F)CC3)C2)c(Cl)c1=O)NO` [P-0430, (R)-1-(5-chloro-1-(2-(hydroxyamino)-2-oxoethyl)-6-oxo-1,6-dihydropyridazin-4-yl)pyrrolidin-3-yl (4,4-difluorocyclohexyl)carbamate], the IC50 (commonly the concentration needed to halve the response being measured) in experiment [1] lay in the range of 10 to 100 µM; in experiment [2] it was 0.001 to 10 µM.
Take `O=C(NC1CC(F)(F)C1)O[C@@H]1CCN(c2cnn(CCO)c(=O)c2Cl)C1` [P-0431, (R)-1-(5-chloro-1-(2-hydroxyethyl)-6-oxo-1,6-dihydropyridazin-4-yl)pyrrolidin-3-yl (3,3-difluorocyclobutyl)carbamate]: the IC50 in experiment [1] and in experiment [2] was 0.001 to 10 µM each time.
Regarding `CC1(NC(=O)O[C@@H]2CCN(c3cn[nH]c(=O)c3Cl)C2)CC(F)(F)C1` [P-0432, (R)-1-(5-chloro-6-oxo-1,6-dihydropyridazin-4-yl)pyrrolidin-3-yl (3,3-difluoro-1-methylcyclobutyl)carbamate], the IC50 in experiment [1] and in experiment [2] was 0.001 to 10 µM throughout.
Turning to `O=C(NC12CC(F)(C1)C2)O[C@@H]1CCN(c2cn[nH]c(=O)c2Cl)C1` [P-0433, (R)-1-(5-chloro-6-oxo-1,6-dihydropyridazin-4-yl)pyrrolidin-3-yl (3-fluorobicyclo[1.1.1]pentan-1-yl)carbamate], the IC50 in experiment [1] and in experiment [2] was 0.001 to 10 µM in each case.
Turning to `O=C(N[C@H]1CC[C@@H](NC2CCC2)CC1)O[C@@H]1CCN(c2cn[nH]c(=O)c2Cl)C1` [P-0434, (R)-1-(5-chloro-6-oxo-1,6-dihydropyridazin-4-yl)pyrrolidin-3-yl ((1s,4S)-4-(cyclobutylamino)cyclohexyl) carbamate], the IC50 in experiment [1] and in experiment [2] was 0.001 to 10 µM throughout.
In the case of `NCCn1ncc(N2CC[C@@H](OC(=O)N[C@H]3CC[C@@H](NC(=O)NC4CC4)CC3)C2)c(Cl)c1=O` [P-0435, (R)-1-(1-(2-aminoethyl)-5-chloro-6-oxo-1,6-dihydropyridazin-4-yl)pyrrolidin-3-yl ((1s,4S)-4-(3-cyclopropylureido)cyclohexyl) carbamate], the 50% inhibitory concentration (IC50) in experiment [1] and in experiment [2] was 0.001 to 10 µM each time.
With `C#CC1(NC(=O)O[C@@H]2CCN(c3cn[nH]c(=O)c3Cl)C2)CCCCC1` [P-0436, (R)-1-(5-chloro-6-oxo-1,6-dihydropyridazin-4-yl)pyrrolidin-3-yl (1-ethynylcyclohexyl)carbamate], the IC50 in experiment [1] and in experiment [2] was 0.001 to 10 µM throughout.
As for `CC1(NC(=O)O[C@@H]2CCN(c3cn[nH]c(=O)c3Cl)C2)CCC(F)(F)CC1` [P-0437, (R)-1-(5-chloro-6-oxo-1,6-dihydropyridazin-4-yl)pyrrolidin-3-yl (4,4-difluoro-1-methylcyclohexyl)carbamate], the IC50 in experiment [1] and in experiment [2] was 0.001 to 10 µM each time.
As to `O=C(NC1CCN(C(=O)Nc2ncccc2F)CC1)O[C@@H]1CCN(c2cn[nH]c(=O)c2Cl)C1` [P-0438, (R)-1-(5-chloro-6-oxo-1,6-dihydropyridazin-4-yl)pyrrolidin-3-yl (1-((3-fluoropyridin-2-yl)carbamoyl)piperidin-4-yl)carbamate], the IC50 in experiment [1] and in experiment [2] was 0.001 to 10 µM in each case.
In the case of `CC1(NC(=O)O[C@@H]2CCN(c3cnn(CCO)c(=O)c3Cl)C2)CC(F)(F)C1` [P-0439, (R)-1-(5-chloro-1-(2-hydroxyethyl)-6-oxo-1,6-dihydropyridazin-4-yl)pyrrolidin-3-yl (3,3-difluoro-1-methylcyclobutyl)carbamate], the IC50 in experiment [1] and in experiment [2] was 0.001 to 10 µM each time.
